Assay results published in PubChem BioAssay AID2060600 (Molecular Pharmacology Branch, DTP, NCI, 2025).

Test system: 996289-038-R-J1-PDC complex spheroid viability
Assay: Anticancer human tumor 996289-038-R-J1-PDC patient-derived colon adenocarcinoma cell line growth inhibition [CLK]
Conditions: for IC50: curve of first compound; for viability, T/C: stronger effect = lower value; active = viability on the fitted dose curve at most 10% of control; inactive = the rest
From the text: A high-throughput screen of multi-cell type tumor spheroids was designed to identify active combinations of […] and targeted small molecules. Complex spheroids include a stromal component modeled by human endothelial cells (HUVEC) and fibroblasts modeled by human mesenchymal stem cells (MSCs). The concentration ranges selected for each drug and investigational agent were based upon clinically achievable concentrations if the clinical Cmax of the agent was known.
Compounds. The drugs and investigational agents: cirtuvivint (SM08502; NSC835563), CC-671 (NSC850746), vemurafenib (NSC761431), tapotoclax (NSC804041), sotorasib (NSC818433), adagrasib (NSC831453), MRTX-1133 (NSC836407), BAY2416964 (NSC825713), copanlisib (NSC816437), inavolisib (NSC800729), abemaciclib (NSC768073), osimertinib (NSC779217), entinostat (NSC756642), eltanexor (KPT-8602, NSC794443), venetoclax (NSC766270), ceralasertib (NSC777638), bortezomib (NSC756655), olaparib (NSC753686), talazoparib (NSC767125), alisertib (NSC759677), peposertib (NSC802822), gemcitabine (NSC613327), 5-fluorouracil (NSC19893), SN-38 (NSC673596), oxaliplatin (NSC266046), paclitaxel (NSC125973), and doxorubicin (NSC123127), were obtained from the National Cancer Institute (NCI) Developmental Therapeutics Program Chemical Repository. The FDA-approved anticancer drug set is available from the Developmental Therapeutics Program at https://dtp.cancer.gov/organization/dscb/obtaining/available plates.htm. […] The stock solutions were prepared in dimethyl sulfoxide (DMSO, Sigma-Aldrich, St. Louis, MO, cat. D2650), except for the platinum complexes which were prepared in saline (Quality Biological, Gaithersburg, MD, cat. 114-055-101), at 800-fold the tested concentration and stored at -70 degrees C prior to their use. All drugs and investigational agents were tested over a range starting from a high concentration at or near the clinical Cmax and decreasing in half-log increments. If the clinical Cmax for an agent had not been determined, the highest concentration tested was 10 microM.
Cell Culture. All cells were maintained in an incubator at 37 degrees C and 5% CO2 with 95% humidity. The PDC lines were cultured according to standard operating procedures established by the NCI PDMR. Briefly, all PDCs were thawed and cultured in Matrigel-coated flasks prepared with a working solution of 1X Ham's F-12 nutrient mix, without supplementation (Invitrogen, Waltham, MA, cat. 11765054), 100 U/mL penicillin-streptomycin (Invitrogen, cat. 15140122), and 2.5% Matrigel (Corning Inc., Corning, NY, cat. 354248) for the first three passages. The 947758-054-R-J2-PDC line was cultured in 6B/Colon 1A media, which includes advanced DMEM/F-12 (Thermo Fisher Scientific, cat. 12634028), 10 mM HEPES (Thermo Fisher Scientific, cat. 15630080), 1X GlutaMAX supplement (Thermo Fisher Scientific, cat. 35050061), 0.1 mg/mL primocin (InvivoGen, cat. ant-pm-2), 10% defined fetal bovine serum, heat inactivated (HyClone Laboratories Inc., cat. SH30070.03HI), 1.25 mM N-Acetyl-L-cysteine (Sigma-Aldrich, cat. A9165), 10 mM nicotinamide (Sigma-Aldrich, cat. N0636), 1X B-27 supplement (Thermo Fisher Scientific, cat. 17504044), 1X N-2 supplement (Thermo Fisher Scientific, cat. 17502048), and 10 microM Y-27632 dihydrochloride (Tocris Bioscience, cat. 1254). The 876862-298-R-J1-PDC was cultured in 6E media, which includes all 6B/Colon 1A media components plus 50% L-WRN conditioned media (ATCC, cat. CRL-3276), 50 ng/mL recombinant human EGF recombinant protein (hEGF; Thermo Fisher Scientific, cat. PHG0311), 10 ng/mL recombinant human fibroblast growth factor 10 (hGFG-10; PeproTech, cat. 100-26), 1 ng/mL recombinant human fibroblast growth factor 2 (hFGF-2; PeproTech, cat. 100-18B), and 1 µM prostaglandin E2 (PGE2; Tocris, cat. 2296). The 227483-062-R1-J1-PDC line was cultured in Panc media, containing all 6E components except hFGF-2, with the addition of 500 nM SB-431542 (Selleckchem, cat. S1067) and 10 nM gastrin (Tocris, cat. 3006). […]

[1] = second compound 0.0316 µM, first compound 0.0316 µM
[2] = second compound 0.0316 µM, first compound 0.1 µM
[3] = second compound 0.0316 µM, first compound 0.316 µM
[4] = second compound 0.0316 µM, first compound 1 µM
[5] = second compound 0.1 µM, first compound 0.0316 µM
[6] = second compound 0.1 µM, first compound 0.1 µM
[7] = second compound 0.1 µM, first compound 0.316 µM
[8] = second compound 0.1 µM, first compound 1 µM
[9] = second compound 0.316 µM, first compound 0.0316 µM
[10] = second compound 0.316 µM, first compound 0.1 µM
[11] = second compound 0.316 µM, first compound 0.316 µM
[12] = second compound 0.316 µM, first compound 1 µM
[13] = second compound 1 µM, first compound 0.0316 µM
[14] = second compound 1 µM, first compound 0.1 µM
[15] = second compound 1 µM, first compound 0.316 µM
[16] = second compound 1 µM, first compound 1 µM
[17] = second compound 3.16 µM, first compound 0.0316 µM
[18] = second compound 3.16 µM, first compound 0.1 µM
[19] = second compound 3.16 µM, first compound 0.316 µM
[20] = second compound 3.16 µM, first compound 1 µM
[21] = second compound 10 µM, first compound 0.0316 µM
[22] = second compound 10 µM, first compound 0.1 µM
[23] = second compound 10 µM, first compound 0.316 µM
[24] = second compound 10 µM, first compound 1 µM
[25] = second compound 0.0316 µM, first compound 0.00316 µM
[26] = second compound 0.0316 µM, first compound 0.01 µM
[27] = second compound 0.1 µM, first compound 0.00316 µM
[28] = second compound 0.1 µM, first compound 0.01 µM
[29] = second compound 0.316 µM, first compound 0.00316 µM
[30] = second compound 0.316 µM, first compound 0.01 µM
[31] = second compound 1 µM, first compound 0.00316 µM
[32] = second compound 1 µM, first compound 0.01 µM
[33] = second compound 3.16 µM, first compound 0.00316 µM
[34] = second compound 3.16 µM, first compound 0.01 µM
[35] = second compound 10 µM, first compound 0.00316 µM
[36] = second compound 10 µM, first compound 0.01 µM
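Note: spheroids exposed to the agents for 7 days before readout.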

CC(Nc1ccc2c(c1)OCCn1cc(N3C(=O)OCC3C(F)F)nc1-2)C(N)=O (stereo unspecified) + CN1CCN(c2cc(C(=O)Nc3cc4cc(-c5cnn(C)c5)ccc4cn3)ccn2)CC1
0.158 µM: IC50 (second compound 0.316 µM)
inactive: viability, T/C [1] 88.1% | viability, T/C [2] 84.9% | viability, T/C [3] 71.8% | viability, T/C [4] 60.5% | viability, T/C (second compound 0.0316 µM, first compound 3.16 µM) 52.2% | viability, T/C (second compound 0.0316 µM, first compound 10 µM) 37.2% | viability, T/C [5] 91.5% | viability, T/C [6] 77.3% | viability, T/C [7] 62.1% | viability, T/C [8] 50.6% | viability, T/C (second compound 0.1 µM, first compound 3.16 µM) 41.6% | viability, T/C (second compound 0.1 µM, first compound 10 µM) 31.2% | viability, T/C [9] 62% | viability, T/C [10] 50.9% | viability, T/C [11] 46% | viability, T/C [12] 35.6% | viability, T/C (second compound 0.316 µM, first compound 3.16 µM) 35.9% | viability, T/C (second compound 0.316 µM, first compound 10 µM) 21.9%
active: viability, T/C [13] 2.6% | viability, T/C [14] 2.53% | viability, T/C [15] 2.23% | viability, T/C [16] 1.58% | viability, T/C (second compound 1 µM, first compound 3.16 µM) 1.47% | viability, T/C (second compound 1 µM, first compound 10 µM) 1.4% | viability, T/C [17] 3.59% | viability, T/C [18] 0.97% | viability, T/C [19] 1.63% | viability, T/C [20] 1.51% | viability, T/C (second compound 3.16 µM, first compound 3.16 µM) 1.33% | viability, T/C (second compound 3.16 µM, first compound 10 µM) 1.96% | viability, T/C [21] 1.51% | viability, T/C [22] 0.78% | viability, T/C [23] 1.23% | viability, T/C [24] 0.65% | viability, T/C (second compound 10 µM, first compound 3.16 µM) 0.6% | viability, T/C (second compound 10 µM, first compound 10 µM) 0.47%
3.17 µM: IC50 (second compound 0.0316 µM)
1.1 µM: IC50 (second compound 0.1 µM)
< 0.0316 µM: IC50 (second compound 1 µM) | IC50 (second compound 3.16 µM) | IC50 (second compound 10 µM)

CCN1CCN(Cc2ccc(Nc3ncc(F)c(-c4cc(F)c5nc(C)n(C(C)C)c5c4)n3)nc2)CC1 + CN1CCN(c2cc(C(=O)Nc3cc4cc(-c5cnn(C)c5)ccc4cn3)ccn2)CC1
inactive: viability, T/C [25] 95.8% | viability, T/C [26] 97.3% | viability, T/C [1] 82.6% | viability, T/C [2] 82.5% | viability, T/C [3] 79.7% | viability, T/C [4] 76.8% | viability, T/C [27] 101% | viability, T/C [28] 85.7% | viability, T/C [5] 86.4% | viability, T/C [6] 81.4% | viability, T/C [7] 68.8% | viability, T/C [8] 71% | viability, T/C [29] 64.8% | viability, T/C [30] 62.5% | viability, T/C [9] 58.7% | viability, T/C [10] 53.4% | viability, T/C [11] 51.3% | viability, T/C [12] 50.8%
0.753 µM: IC50 (second compound 0.316 µM)
active: viability, T/C [31] 6.12% | viability, T/C [32] 6.14% | viability, T/C [13] 7.95% | viability, T/C [14] 8.35% | viability, T/C [15] 10.1% | viability, T/C [16] 2.91% | viability, T/C [33] 1.14% | viability, T/C [34] 1.05% | viability, T/C [17] 0.74% | viability, T/C [18] 1.08% | viability, T/C [19] 1.2% | viability, T/C [20] 2.28% | viability, T/C [35] 0.58% | viability, T/C [36] 0.55% | viability, T/C [21] 0.57% | viability, T/C [22] 0.88% | viability, T/C [23] 0.37% | viability, T/C [24] 0.53%
< 0.00316 µM: IC50 (second compound 1 µM) | IC50 (second compound 3.16 µM) | IC50 (second compound 10 µM)
> 1 µM: IC50 (second compound 0.0316 µM) | IC50 (second compound 0.1 µM)

COc1c(OCCCN2CCOCC2)ccc2c3n(c(=NC(=O)c4cnc(N)nc4)nc12)CCN3 + CN1CCN(c2cc(C(=O)Nc3cc4cc(-c5cnn(C)c5)ccc4cn3)ccn2)CC1
0.0746 µM: IC50 (second compound 0.0316 µM)
0.0377 µM: IC50 (second compound 0.1 µM)
inactive: viability, T/C [25] 87.7% | viability, T/C [26] 88.8% | viability, T/C [1] 64.5% | viability, T/C [2] 43.9% | viability, T/C [3] 30.1% | viability, T/C [4] 18.7% | viability, T/C [27] 86% | viability, T/C [28] 66.7% | viability, T/C [5] 56.4% | viability, T/C [6] 33.5% | viability, T/C [7] 24.8% | viability, T/C [8] 13.5% | viability, T/C [29] 56.9% | viability, T/C [30] 50% | viability, T/C [9] 36.3% | viability, T/C [10] 21% | viability, T/C [11] 12.7%
active: viability, T/C [12] 8.17% | viability, T/C [31] 2.97% | viability, T/C [32] 3.06% | viability, T/C [13] 3.03% | viability, T/C [14] 1.3% | viability, T/C [15] 1.59% | viability, T/C [16] 3.21% | viability, T/C [33] 0.97% | viability, T/C [34] 0.95% | viability, T/C [17] 2.68% | viability, T/C [18] 0.71% | viability, T/C [19] 2.1% | viability, T/C [20] 1.27% | viability, T/C [35] 1.28% | viability, T/C [36] 0.97% | viability, T/C [21] 0.74% | viability, T/C [22] 0.86% | viability, T/C [23] 0.56% | viability, T/C [24] 0.61%
0.00979 µM: IC50 (second compound 0.316 µM)
< 0.00316 µM: IC50 (second compound 1 µM) | IC50 (second compound 3.16 µM) | IC50 (second compound 10 µM)
